Test results as given in patent EP3681856B1, “COMPOUNDS HAVING PRESERVATIVE, ANTIMICROBIAL AND ANTISEPTIC ACTIVITY” (Universita' degli Studi di Milano, priority 2017, dated 2019).

Legend:
Assay type in all cases: cell-based
[1] = test system: Escherichia coli ATCC25922; test: disc diffusion antimicrobial susceptibility test (EUCAST); conditions: MHA, 1000 to 125 µg/mL, 37°C, 16-20 h, compared with domiphen bromide
Protocol: The antimicrobial susceptibility tests were effected by the disc diffusion method as indicated by EUCAST (European Committee on Antimicrobial Susceptibility Testing). The plates were prepared with Mueller Hinton Agar (MHA) medium into which microbial suspensions of Escherichia coli ATCC25922 and Staphylococcus aureus ATCC25923 were inoculated at a concentration of about 2×10^8 CFU/mL. Sterile discs were then placed on each plate and subsequently inoculated with successive concentrations of the two chemical compounds analysed (domiphen bromide and para-bromo domiphen bromide), together with a positive control (chloramphenicol) and a negative control (MH broth). The plates were then incubated at 37°C in aerobiosis for 16-20 h. After incubation, any inhibition zone due to the potential antimicrobial activity was measured with a ruler, and the activities of the two molecules were compared. In Figure 6 and Figure 7: • TQ= concentration of compound amounting to 1000 µg/mL 1:2= concentration of compound amounting to 500 µg/mL • 1:4= concentration of compound amounting to 250 µg/mL • 1:8= concentration of compound amounting to 125 µg/mL • CHL= chloramphenicol (antibiotic) • CNEG= negative control (MHB).

[2] = test system: Candida humilis UMY12 (UNIMI collection); test: disc diffusion test on yeast; conditions: MHA with 2% glucose, 5120 µg/mL, preliminary tests
Protocol: Some preliminary tests were also effected to evaluate the activity against eukaryotic microorganisms such as yeasts.
The disc diffusion method was applied again, using the yeast Candida humilis UMY12 (UNIMI collection).
2% glucose was added to the MHA medium, and the concentration of the suspension amounted to about 3×10^6 CFU/mL. The concentration of the chemical compounds amounted to 5120 µg/mL for both compounds.

[3] = test system: S. aureus; test: MIC evaluation, broth microdilution method (CLSI); conditions: Staphylococcus aureus, 37°C
From the text: (§1) Tests were then effected on the two bacteria analysed with the agar diffusion test and on two other microorganisms such as Pseudomonas aeruginosa DSM 22644 (PAO1) and Bacillus cereus DSM31 to evaluate the Minimum Inhibitory Concentration (MIC), i.e. the lowest concentration of compound able to inhibit the growth of a microorganism. The method used was the broth microdilution method (CLSI - Clinical and Laboratory Standards Institute). Briefly, the procedure involved the preparation of serial dilutions of the antimicrobial agent (256 to 0.125 mg/1) distributed in a 96-well microtiter plate (microdilution). Each well was then inoculated with the reference microbial strain at the concentration of about […] (0.5 McFarlands). The 96-well microtiter plates were then incubated at 37°C.

[4] = test system: Pseudomonas aeruginosa DSM 22644 (PAO1); test: MIC evaluation, broth microdilution method (CLSI); conditions: summary statement in words
From the text: as §1

[5] = test system: Bacillus cereus DSM31; test: MIC evaluation, broth microdilution method (CLSI); conditions: summary statement in words
From the text: as §1

[6] = test system: E. coli; test: MIC evaluation, broth microdilution method (CLSI); conditions: Escherichia coli, 37°C
From the text: as §1

[7] = test system: Staphylococcus aureus ATCC25923; test: disc diffusion antimicrobial susceptibility test (EUCAST); conditions: MHA, 1000 to 125 µg/mL, 37°C, 16-20 h
Protocol: The antimicrobial susceptibility tests were effected by the disc diffusion method as indicated by EUCAST (European Committee on Antimicrobial Susceptibility Testing). The plates were prepared with Mueller Hinton Agar (MHA) medium into which microbial suspensions of Escherichia coli ATCC25922 and Staphylococcus aureus ATCC25923 were inoculated at a concentration of about 2×10^8 CFU/mL. Sterile discs were then placed on each plate and subsequently inoculated with successive concentrations of the two chemical compounds analysed (domiphen bromide and para-bromo domiphen bromide), together with a positive control (chloramphenicol) and a negative control (MH broth). The plates were then incubated at 37°C in aerobiosis for 16-20 h. After incubation, any inhibition zone due to the potential antimicrobial activity was measured with a ruler, and the activities of the two molecules were compared. In Figure 8 and Figure 9: • TQ= concentration of compound amounting to 1000 µg/mL • 1:2= concentration of compound amounting to 500 µg/mL • 1:4= concentration of compound amounting to 250 µg/mL • 1:8= concentration of compound amounting to 125 µg/mL • CHL= chloramphenicol (antibiotic) • CNEG= negative control (MHB).

Compound | antimicrobial activity (inhibition zone) towards E. coli [1] | antimicrobial activity against yeast [2] | MIC [3] | activity compared with domiphen against Pseudomonas aeruginosa [4] | activity compared with domiphen against Bacillus cereus [5] | MIC [6] | antimicrobial activity (inhibition zone) towards S. aureus [7]
CCCCCCCCCCCC[N+](C)(C)CCOc1ccc(Br)cc1 [compound of formula (Ia), (dodecyldimethyl-2-p-bromophenoxyethyl)ammonium bromide] | comparable with that of domiphen bromide | almost the same antimicrobial activity | 1 µg/mL | more active than domiphen | more active than domiphen | 8 µg/mL | exhibits antimicrobial activity
CCCCCCCCCCCC[N+](C)(C)CCOc1ccccc1 [domiphen bromide, Domiphen bromide, reference compound] |  | almost the same antimicrobial activity | 1 µg/mL |  |  | 8 µg/mL | 
